From patent publication US20120015967A1, “PYRIMIDINE AND PYRIDINE DERIVATIVES AS POSH AND POSH-AP INHIBITORS” (PROTEOLOGICS, LTD., priority 2007, published 2012)
Like-named read-outs stand apart in the source and are kept apart here.

Tests used:
hPOSH = target: T1, hPOSH (Homo sapiens, UniProt Q7Z6J0); assay: HTS TR-FRET assay of POSH autoubiquitination; type: biochemical; settings: in vitro TR-FRET, GST tagged hPOSH with E1 and UbcH5c; read-out: IC50, inhibition of POSH autoubiquitination
T1 construct: a fused GST-RING subunit of POSH protein and two fluorophore-conjugated detection reagents
T1 sequence (Q7Z6J0 12-53 limits assumed): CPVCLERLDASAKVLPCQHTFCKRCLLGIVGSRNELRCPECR
Protocol: In order to test compounds as inhibitors of POSH, a ubiquitin protein ligase (E3) containing a RING domain that mediates its own ubiquitination in a RING finger-dependent manner in the presence of E1 and E2, a HTS (high-throughput screening) homogeneous TR-FRET (Time-Resolved Fluorescence Resonance Energy Transfer) assay was conducted to monitor POSH autoubiquitination.
The assay employs an ubiquitin-activating enzyme (E1) and an ubiquitin-conjugating enzyme (E2), a fused GST-RING subunit of POSH protein and two fluorophore-conjugated detection reagents, namely anti-GSTXL665 and europium cryptate-labeled ubiquitin. This homogeneous assay is based on FRET between a Eu^3+ cryptate donor and a second fluorescent label (acceptor), allophycocyanin. Allophycocyanin, a 105 kDa phycobiliprotein, is crosslinked to ensure its stability.
The ubiquitination of POSH by ubiquitin cryptate and binding of the anti-GST tagged XL665 brings the fluorophores into close proximity allowing FRET reaction to occur (see diagram).
Self-ubiquitination of hPOSH was determined by homogenous time-resolved fluorescence resonance energy transfer assay (TR-FRET). […]
where: S=actual fluorescence, B=Fluorescence obtained in parallel incubation without cb1-b, C=Fluorescence obtained in reaction without added compounds. […]

HIV-1 = assay: Assay for virus release (HIV-1 p24 / VLP release) in Jurkat cells transfected with pNLenv1; type: cell-based; settings: Human immunodeficiency virus 1, 24 h, VLP release one day after transfection, anti-CA immunoblot
Protocol: The POSH inhibitor Compound 1 was tested for its efficiency of viral budding and GAG expression and processing in treated and untreated Jurkat cells. The concentration of extracellular GAG p24 was used as an indication of viral budding.
Jurkat cells were incubated with Compound 1 for either 1 or 3 days. The next day, cells were transfected with the plasmid pNLenv1 (2 μg/ml). Virus-like particle (VLP) release was determined one day after transfection as follows: the culture medium of virus-expressing cells was collected and centrifuged at 500×g for 10 minutes. The resulting supernatant was passed through a 0.45 μm-pore filter and the filtrate was centrifuged at 14,000×g for 2 hours at 4° C. The corresponding cells were washed three times with phosphate-buffered saline (PBS) and then solubilized by incubation on ice for 15 minutes in lysis buffer containing the following components: 50 mM Hepes-NaOH, (pH 7.5), 150 mM NaCl, 1.5 mM MgCl2, 0.5% NP-40, 0.5% sodium deoxycholate, 1 mM EDTA, 1 mM EGTA and 1:200 dilution of protease inhibitor cocktail (EMD Biosciences, Inc.). […] The CA was detected after incubation with a secondary anti-rabbit horseradish peroxidase-conjugated antibody, and detected by Enhanced Chemi-Luminescence (ECL) (Amersham Biosciences, Corp.) and detected by fluorescence imaging (Typhoon Instrument, Amersham Biosciences, Corp.). […]

HIV-1IIIB = assay: HIV cytoprotection assay, CEM-SS cells infected with HIV-1IIIB (MTS); type: cell-based; settings: for IC50: read-out: IC50 (concentration inhibiting virus replication by 50%)
Protocol: (§1) For the HIV cytoprotection assay, CEM-SS cells were used and the viruses HIV-1IIIB, HIV-1RF, or HIV-2ROD.
(§2) Briefly, virus and cells were mixed in the presence of a test compounds and incubated for 6 days. […] Each assay plate contained the following controls: cell control wells (cells only), virus control wells (cells plus virus), compound toxicity control wells (cells plus compound only), compound colorimetric control wells (compound only), as well as the experimental wells (compound plus cells plus virus). Cytoprotection and compound cytotoxicity were assessed by MTS (CellTiter® 96 Reagent, Promega, Madison Wis.) dye reduction, and the IC50 (concentration inhibiting virus replication by 50%), TC50 (concentration resulting in 50% cell death) and a calculated T1 (therapeutic index TC50/IC50) were obtained. Each assay included the HIV reverse transcriptase inhibitor AZT as a positive control.

[1] = Compound cytotoxicity on uninfected CEM-SS cells (MTS); type: cell-based; settings: human, read-out: TC50 (concentration resulting in 50% cell death)
Protocol: as §2

HIV-2ROD = assay: HIV cytoprotection assay, CEM-SS cells infected with HIV-2ROD (MTS); type: cell-based
Protocol: as §1, §2

| Compound | IC50 (hPOSH) [µM] | IC50 (HIV-1) [µM] | Antiviral Index (TI), TC50/IC50 (HIV-1IIIB; HIV-1IIIB, CEM-SS cells) | IC50 (HIV-1IIIB; Human immunodeficiency virus 1, CEM-SS, 144 h) [µM] | CC50 at 6 days ([1]; Table 1 (HIV-1IIIB experiment)) [µM] | IC50 (HIV-1IIIB; Human immunodeficiency virus 1, 144 h, HIV-1IIIB, CEM-SS cells, 6 days) [µM] | CC50 at 6 days ([1]; Table 2 (HIV-2ROD experiment)) [µM] | Antiviral Index (TI), TC50/IC50 (HIV-2ROD) | IC50 (HIV-2ROD; Human immunodeficiency virus 2, 144 h, 6 days, read-out: IC50 (concentration inhibiting virus replication by 50%)) [µM] |
| --- | --- | --- | --- | --- | --- | --- | --- | --- | --- |
| Cc1cc(C)nc(NS(=O)(=O)c2cc(Cl)ccc2Cl)n1 [Compound 1, 2,5-dichloro-N-(4,6-dimethylpyrimidin-2-yl)benzenesulfonamide] | 12 | 100 | >1.61 | 62 | > 100 |  |  |  |  |
| Cc1cc(C)nc(NS(=O)(=O)c2cc(Cl)ccc2Cl)c1 [Compound 2, 2,5-dichloro-N-(4,6-dimethylpyridin-2-yl)benzenesulfonamide] |  |  | 28.5 |  | 114 | 3.99 | 169 | 3.80 | 44.4 |
